Test system: not given
Assay: not given
Settings: from CC(CC(=O)O)Oc1ccccc1[C@H]1CC[C@@H](OC[C@@H]2NCC[C@@]23COCC(=O)N3)CC1; amide bond; HATU/DIPEA; acetonitrile; 3.7 mM; 3.0 h
`CC1CC(=O)N2CC[C@@]3(COCC(=O)N3)[C@@H]2CO[C@H]2CC[C@H](CC2)c2ccccc2O1` (relative stereo) showed a ring closure, yield of all isomers of 45.6%.

Same assay, conditions: from C[C@@H]1CC2(COCC(=O)N2)C(COC2CC=C(c3cccc(F)c3OCC(=O)O)CC2)N1; amide bond; HATU, DIPEA; acetonitrile; 16.9 mM; 3.0 h
Molecule `C[C@@H]1CC2(COCC(=O)N2)C2COC3CC=C(CC3)c3cccc(F)c3OCC(=O)N21` (stereo partly drawn) has a ring closure, yield of all isomers of 30.1%.

Same assay, conditions: from O=C1COC[C@@]2(CCCN(C(=O)OCCCl)[C@H]2CO[C@H]2CC[C@@H](c3cccc(O)c3)CC2)N1; ether bond; Cs2CO3; DMF; 4.02 mM; 60.0 °C; 15.0 h
Work on `O=C1COC[C@@]2(CCCN3C(=O)OCCOc4cccc(c4)[C@H]4CC[C@H](CC4)OC[C@H]32)N1` (relative stereo) yielded a ring closure, yield of all isomers of 11.1%.

Same assay, conditions: from O=C(O)CC(Oc1ccccc1[C@H]1CC[C@@H](OC[C@@H]2NCC[C@@]23COCC(=O)N3)CC1)C(F)(F)F; amide bond; HATU/DIPEA; acetonitrile; 3.68 mM; 3.0 h
With `O=C1COC[C@@]2(CCN3C(=O)CC(C(F)(F)F)Oc4ccccc4[C@H]4CC[C@H](CC4)OC[C@H]32)N1` (relative stereo) the ring closure, yield of all isomers was 54.7%.

Same assay, conditions: from O=C(O)CCCOc1ccccc1[C@H]1CC[C@@H](OC[C@@H]2NCC[C@@]23COCC(=O)N3)CC1; amide bond; HATU/DIPEA; acetonitrile; 2.01 mM; 3.0 h
Work on `O=C1COC[C@@]2(CCN3C(=O)CCCOc4ccccc4[C@H]4CC[C@H](CC4)OC[C@H]32)N1` (relative stereo) yielded a ring closure, yield of all isomers of 54.4%.

Same assay, conditions: from O=C(O)CCOc1c(F)cc(F)cc1C1=CCC(OC[C@@H]2NCC[C@@]23COCC(=O)N3)CC1; amide bond; HATU/DIPEA; acetonitrile; 3.43 mM; 3.0 h
Molecule `O=C1COC[C@@]2(CCN3C(=O)CCOc4c(F)cc(F)cc4C4=CCC(CC4)OC[C@H]32)N1` (relative stereo) has a ring closure, yield of all isomers of 60.1%.

Same assay, conditions: from O=C(O)COc1ccccc1[C@H]1CC[C@@H](OCC2NCCCC2O)CC1; amide bond; HATU; acetonitrile; 19.25 mM; 3.0 h
With `O=C1COc2ccccc2[C@H]2CC[C@H](CC2)OCC2C(O)CCCN12` (stereo partly drawn) the ring closure, yield of all isomers was 65%.

Target: T1, human recombinant OX2 (hOX2) receptors expressed in CHO cells (Homo sapiens, UniProt O43614)
T1 construct: host or cells: CHO cells (hOX2-CHO)
T1 sequence (O43614 1-444): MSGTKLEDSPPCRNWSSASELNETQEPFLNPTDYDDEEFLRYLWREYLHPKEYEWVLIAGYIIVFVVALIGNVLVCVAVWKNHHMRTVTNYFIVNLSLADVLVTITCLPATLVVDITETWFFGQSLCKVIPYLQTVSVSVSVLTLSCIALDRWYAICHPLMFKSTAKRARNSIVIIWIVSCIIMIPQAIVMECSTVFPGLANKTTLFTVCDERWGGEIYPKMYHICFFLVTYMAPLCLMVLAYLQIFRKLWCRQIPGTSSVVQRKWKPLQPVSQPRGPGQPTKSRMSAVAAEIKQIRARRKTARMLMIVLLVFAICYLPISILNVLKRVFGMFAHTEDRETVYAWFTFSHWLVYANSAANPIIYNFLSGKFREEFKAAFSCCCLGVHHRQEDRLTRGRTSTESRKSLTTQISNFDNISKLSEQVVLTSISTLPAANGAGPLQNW
Assay: IP-1 accumulation assay (IP-One HTRF) in hOX2-CHO cells
Format: cell-based
Settings: 60 min incubation at 37° C., mean of at least two independent experiments, read-out: EC50_OX2R Category
Procedure, shortened: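 IP-1 HTRF (665/615 ratio) after 60 min compound exposure at 37 °C, 11-point dilution, 0.5% DMSO, LiCl-containing HEPES-buffered HBSS pH 7.4. Response expressed as percent of maximal OX-A effect; EC50 by four-parameter logistic fit, averaged over at least two independent experiments in duplicate.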
With `O=C1COC[C@]2(CCCN3C(=O)COc4ncccc4[C@H]4CC[C@H](CC4)OC[C@@H]32)N1` [Example 45b, (1′s,3R,16′S,19′s)-8′,18′-dioxa-6′,11′-diazaspiro [morpholine-3,15′-tetracyclo[17.2.2. 0^2,^7.0^11,^16]tricosane]-2′(7′),3′,5′-triene-5,10′-dione] the EC50 was greater than 10 µM.
`O=C1COCC2(CCN3C(=O)C4(CC4)COc4ccccc4[C@H]4CC[C@H](CC4)OCC32)N1` (mixture of isomers) [Example 7, Rel-(1′s, 15'S,16′R,19′s)-dispiro[cyclopropane-1,10′-[8,18]dioxa-[12]azatetracyclo[17.2.2.0^2,70.0^12,16]tricosane-15′,3″-morpholine]-2′(7′),3′,5′-triene-5″,11′-dione] gave an EC50 of 1 to 10 µM.
`O=C1CCC[C@@]2(CCCN3C(=O)COc4ccccc4[C@H]4CC[C@H](CC4)OC[C@H]32)N1` (single isomer, unassigned) [Example 58a] showed an EC50 of less than 0.1 µM.
`O=C1N[C@@]2(CCCN3C(=O)COc4ccccc4[C@H]4CC[C@H](CC4)OC[C@@H]32)CO1` (single isomer, unassigned) [Example 67b] showed an EC50 greater than 10 µM.
With `C[C@@H]1C[C@]2(COCC(=O)N2)[C@H]2CO[C@H]3CC[C@H](CC3)c3cc(Cl)ccc3OCC(=O)N12` (single isomer, unassigned) [Example 21b] the EC50 was greater than 10 µM.
For `C[C@@H]1C[C@]2(COCC(=O)N2)[C@H]2CO[C@H]3CC[C@H](CC3)c3cc(F)cc(F)c3OCCC(=O)N12` [Example 25b, (1′s,3R,13′R,16′S, 19′s)-4′,6′-difluoro-13′-methyl-8′,18′-dioxa-12′-azaspiro[morpholine-3,15′-tetracyclo[17.2.2. 0^2,^7.0^12,^16]tricosane]-2′,4′,6′-triene-5,11′-dione], the EC50 was less than 0.1 µM.
In the case of `C[C@@H]1CC2(COCC(=O)N2)C2Cc3cccc(c3F)-c3ccccc3CCCC(=O)N21` (mixture of isomers) [Example 28], the EC50 is reported as 1 to 10 µM.
`O=C1COC[C@]2(CCCN3C(=O)C4(CC4)COc4cccc(F)c4[C@H]4CC[C@H](CC4)OC[C@@H]32)N1` (single isomer, unassigned) [Example 72a, (1′s,16′R,17′S,20′s)-3′-fluorodispiro [cyclopropane-1,10′-[8,19]dioxa-[12]azatetracyclo [18.2.2.0^2,^7.0^12,^17]tetracosane-16′,3″- morpholine]-2′,4′,6′-triene-5″,11′-dione] showed an EC50 of 1 to 10 µM.
`Cc1ccc2c(c1)[C@H]1CC[C@H](CC1)OC[C@H]1N(C(=O)CO2)[C@H](C)C[C@]12COCC(=O)N2` (single isomer, unassigned) [Example 22b] gave an EC50 greater than 10 µM.
For `Cc1cccc2c1[C@H]1CC[C@H](CC1)OC[C@H]1N(CCC[C@]13COCC(=O)N3)C(=O)CO2` (single isomer, unassigned) [Example 47b], the EC50 was 1 to 10 µM.
With `O=C1COC[C@]2(CCCN3C(=O)COc4ccccc4[C@H]4CC[C@H](CC4)OC[C@@H]32)N1` (single isomer, unassigned) [Example 32b] the EC50 was greater than 10 µM.
With `O=C1N[C@]2(CCCN3C(=O)COc4ccccc4[C@H]4CC[C@H](CC4)OC[C@H]32)CO1` (single isomer, unassigned) [Example 67a] the EC50 was less than 0.1 µM.
`O=C1COC[C@]2(CCCN3C(=O)CCOc4ccccc4[C@H]4CC[C@H](CC4)OC[C@@H]32)N1` (single isomer, unassigned) [Example 33b] gave an EC50 of 0.1 to 1 µM.
For `O=C1COC[C@@]2(CCCN3C(=O)COc4ccccc4[C@H]4CC[C@H](CC4)OC[C@H]32)N1` (single isomer, unassigned) [Example 32a], the EC50 was less than 0.1 µM.
Work on `C[C@@H]1C[C@]2(COCC(=O)N2)[C@H]2CO[C@H]3CC[C@H](CC3)c3cccc(Cl)c3OCC(=O)N12` (single isomer, unassigned) [Example 20b] yielded an EC50 greater than 10 µM.
In the case of `CC1Oc2ccccc2[C@H]2CC[C@H](CC2)OC[C@H]2N(CCC[C@]23COCC(=O)N3)C1=O` (single isomer, unassigned) [Example 35b], the EC50 is reported as greater than 10 µM.
`O=C1COCC2(CCCN3C(=O)OCCOc4ccccc4-c4cccc(c4F)CC32)N1` (racemic) [Example 65, Rel-(3S, 18′S)-24′-fluoro-8′,11′-dioxa-13′-azaspiro[morpholine-3,17′-tetracyclo[18.3.1.0^2,70.0^13,18]tetracosane]-1′(24′),2′(7′),3′,5′,20′,22′-hexaene-5,12′-dione] showed an EC50 greater than 10 µM.
Work on `C[C@@H]1CC2(COCC(=O)N2)C2Cc3cccc(c3F)-c3ccccc3OCCCN(C)C(=O)N21` (mixture of isomers) [Example 31, (15′R)-24′-fluoro-12′, 15′-dimethyl-8′-oxa-12′, 14′-diazaspiro[morpholine-3,17′-tetracyclo[18.3.1.0^2,70.0^14,18]tetracosane]-1′(24′),2′(7′),3′,5′,20′,22′-hexaene-5,13′-dione] yielded an EC50 greater than 10 µM.
In the case of `O=C1COC[C@@]2(CCCN3C(=O)OCCCOc4cccc(c4)[C@H]4CC[C@H](CC4)OC[C@H]32)N1` (single isomer, unassigned) [Example 54a], the EC50 is reported as less than 0.1 µM.
`O=C1N[C@]2(CCCN3C(=O)COc4ccccc4[C@H]4CC[C@H](CC4)OC[C@H]32)COC1F` (single isomer, unassigned) [Example 56a] showed an EC50 of less than 0.1 µM.
Work on `C[C@@H]1CC2(COCC(=O)N2)C2Cc3cccc(c3F)-c3ccccc3CCCCC(=O)N21` (mixture of isomers) [Example 29, (14′R)-23′-fluoro-14′-methyl-13′-azaspiro[morpholine-3,16′tetracyclo-[17.3.1.0^2,70.0^13,17]tricosane]-1′(23′),2′(7′),3′,5′,19′,21′-hexaene-5,12′-dione] yielded an EC50 greater than 10 µM.
Work on `O=C1COC[C@@]2(CCCN3C(=O)C4(CC4)COc4ccccc4[C@H]4CC[C@H](CC4)OC[C@H]32)N1` (single isomer, unassigned) [Example 37a, (1′s,16′S,17′R,20′s)-dispiro[cyclopropane-1,10′-[8,19]dioxa-[12]azatetracyclo[18.2.2.0^2,70.0^12,17]tetracosane-16′,3″-morpholine]-2′(7′),3′,5′-triene-5″,11′-dione] yielded an EC50 of less than 0.1 µM.
For `C[C@@H]1CC2(COCC(=O)N2)C2Cc3cccc(c3F)-c3ccccc3OCCN(C)C(=O)N21` (mixture of isomers) [Example 30, (14′R)-23′-fluoro-11′,14′-dimethyl-8′-oxa-11′,13′-diazaspiro[morpholine-3,16′-tetracyclo[17.3.1.0^2,70.0^13,17]tricosane]-1′(23′),2′(7′),3′,5′,19′,21′-hexaene-5,12′-dione], the EC50 was 1 to 10 µM.
Molecule `O=C1CS[C@@]2(CCCN3C(=O)COc4ccccc4[C@H]4CC[C@H](CC4)OC[C@H]32)N1` (single isomer, unassigned) [Example 68a] has an EC50 of 0.1 to 1 µM.
In the case of `O=C1COC[C@]2(CCN3C(=O)CCOc4ccccc4[C@H]4CC[C@H](CC4)OC[C@@H]32)N1` (single isomer, unassigned) [Example 1b], the EC50 is reported as greater than 10 µM.
Molecule `C[C@@H]1C[C@@]2(COCC(=O)N2)[C@@H]2CO[C@H]3CC[C@H](CC3)c3ccc(F)cc3OCC(=O)N12` (single isomer, unassigned) [Example 19a] has an EC50 of less than 0.1 µM.
